Reference: patent US10300052B2, “Methods for increasing CFTR activity” (THE UAB RESEARCH FOUNDATION, priority 2012, dated 2019)

Columns and labels:
HBE cells [1] = assay: Mucus transport studies (fluorescent beads) in HBE cells; assay type: cell-based, human; conditions: ivacaftor 10 μM basolateral, co-stimulated with VIP 30 nM, vs control (FIG. 2C)
Protocol: HBE cells were washed with sterile PBS twice 1-2 days prior to addition of PEG beads. Fifty (50) μl of Diamine polyethylene glycol (PEG) coated fluorescent beads (1 μm, Molecular Probes, Eugene, Oreg., 1:500 dilution in PBS) were added to the apical surface by using a microsprayer aerosolizer (Penn-Century Inc Model IA-1B, Wyndmoor, Pa.). Following 24 h incubation, baseline images were obtained and then test compounds added to the basolateral compartment. Mucociliary transport (MCT) images were captured by time-lapse fluorescence imaging at four regions of interest per well located 1 mm from the periphery of the well and at each quadrant using an inverted epifluorescence microscope (Nikon Diaphot, Melvin, N.Y.; 488 nm excitation/519 nm emission). Linear transport rates were computed using Metamoph 7.0 by analyzing 10-15 particles per region (7).

HBE cells [2] = assay: Airway surface liquid (ASL) depth measurement by confocal microscopy in HBE monolayers; assay type: cell-based, human; conditions: ivacaftor 10 μM basolateral, 24 h, confocal (FIGS. 2A, 2B)
Protocol: White scale bars designate 10 μm.
Dotted line indicates ASL depth of a panel of CF HBE cells using the exact same method.
The apical surfaces of HBE cells were washed three times and then test compounds added to the basolateral compartment 24 h prior to labeling. Cells were stained with CMFDA (100 μM) in the cell culture medium for 1 hr. Texas red dye (25 μl at 2 mg/ml in Fc70) was added apically and cells allowed to equilibrate 2 h at 37° C. Transwell membranes were placed in sterile glass bottom dish coated with MEM, and imaged with a Carl Zeiss (Peabody, Mass.) confocal microscope using 20× (numerical aperture 0.88, working distance 0.55 mm) air objective lens. Cells were visualized with DIC optics to evaluate cell morphology before initiating fluorescence microscopy. Subsequently, Zscan confocal fluorescent microscopy images were acquired from the top of the ASL through the top of the cell surface. XZ scans were analyzed using Zen2008 software at four ROI per well each located 1 mm from the filter periphery and at each quadrant; 5 estimates of ASL depth were taken equally dispersed across each ROI (7, 9).

CC(C)(C)c1cc(C(C)(C)C)c(NC(=O)c2c[nH]c3ccccc3c2=O)cc1O [ivacaftor]
mucus transport (MCT) (HBE cells [1]): markedly increased above baseline | ASL depth (HBE cells [2]): enhanced
